Experimental data reported in patent publication US20190029252A1, “Use of Herbicide-tolerant Protein” (BEIJING DABEINONG TECHNOLOGY GROUP CO., LTD., priority 2016, published 2019).

Tests used:
Assay type in all cases: in vivo
[1] = system: wild-type Arabidopsis thaliana plants; experiment: Herbicide tolerance of Arabidopsis thaliana plants, sprayed, resistance classes counted 14 days after spraying
Excerpt: (§1) T1 transformants were initially selected from the background of untransformed seeds using a glufosinate selection scheme. About 40000 T1 seeds were screened, and 380 T1 positive transformants (PAT gene) were identified with a transformation efficiency of about 0.95%. The plants that were transformed with the recombinant expression vector DBN100632 were Arabidopsis thaliana plants having an ALT-1-01 nucleotide sequence located in the cytoplasm introduced (At cytoplasmic ALT-1-01), and the plants that were transformed with the recombinant expression vector DBN100631 were Arabidopsis thaliana plants having an ALT-1-01 nucleotide sequence located in the chloroplast introduced (At chloroplastic ALT-1-01); the plants that were transformed with the recombinant expression vector DBN100634 were Arabidopsis thaliana plants having an ALT-2-01 nucleotide sequence located in the cytoplasm introduced (At cytoplasmic ALT-2-01), and the plants that were transformed with the recombinant expression vector DBN100633 were Arabidopsis thaliana plants having an ALT-2-01 nucleotide sequence located in the chloroplast introduced (At chloroplastic ALT-2-01); and the plants that were transformed with the recombinant expression vector DBN100636 were Arabidopsis thaliana plants having an ALT-3-01 nucleotide sequence located in the cytoplasm introduced (At cytoplasmic ALT-3-01), and the plants that were transformed with the recombinant expression vector DBN100635 were Arabidopsis thaliana plants having an ALT-3-01 nucleotide sequence located in the chloroplast introduced (At chloroplastic ALT-3-01).
(§2) Plants were counted for the resistance situations 14 days after spraying: those having a consistent growth status with the blank solvent (water) group after 14 days were classified as highly resistant plants, those having a bolting height less than ½ of that of the blank solvent (water) group after 14 days were classified as moderately resistant plants, those still not capable of bolting after 14 days were classified as poorly resistant plants, and those dead after 14 days were classified as non-resistant plants. Since each Arabidopsis thaliana T1 plant was an independent transformation event, a significant difference in individual T1 responses could be expected at a given dose.
as §2, with “situation” for “situations”

[2] = system: At chloroplastic ALT-2-01 T1 plants; experiment: Herbicide tolerance of Arabidopsis thaliana T1 plants, sprayed, resistance classes counted 14 days after spraying; conditions: sprayed at 1-fold field concentration
Excerpt: as §1, §2
as §2, with “situation” for “situations”

[3] = system: At chloroplastic ALT-1-01 T1 plants; experiment: as above; conditions: sprayed at 1-fold field concentration
Excerpt: as §1, §2
as §2, with “situation” for “situations”

[4] = system: At cytoplasmic ALT-1-01 T1 plants; experiment: as above; conditions: sprayed at 1-fold field concentration
Excerpt: as §1, §2
as §2, with “situation” for “situations”

[5] = system: At chloroplastic ALT-3-01 T1 plants; experiment: as above; conditions: sprayed at 1-fold field concentration
Excerpt: as §1, §2
as §2, with “situation” for “situations”

[6] = system: At cytoplasmic ALT-3-01 T1 plants; experiment: as above; conditions: sprayed at 1-fold field concentration
Excerpt: as §1, §2
as §2, with “situation” for “situations”

[7] = system: At cytoplasmic ALT-2-01 T1 plants; experiment: as above; conditions: sprayed at 1-fold field concentration
Excerpt: as §1, §2
as §2, with “situation” for “situations”

[8] = wild-type, sprayed at 1-fold field concentration, 14 days after spraying

With `COC(=O)c1ccccc1S(=O)(=O)NC(=O)N(C)c1nc(C)nc(OC)n1` [tribenuron-methyl, methyl 2-[N-(4-methoxy-6-methyl-1,3,5-triazin-2-yl)-N-methylaminoformamidosulfonyl]benzoate] the “herbicide tolerance (in words)” value ([1]; wild-type Arabidopsis thaliana plants, 18 g ai/ha) was “none of the wild-type Arabidopsis thaliana plants was tolerant”, the “Highly resistant (number of plants)” value [1, 8] was 0 and the “Moderately resistant (number of plants)” value [1, 8] was 0. For the same compound, the “Non-resistant (number of plants)” value [1, 8] was 32, the “Poorly resistant (number of plants)” value [1, 8] was 0 and the “Highly resistant (number of plants)” value [2] was 29. The “Moderately resistant (number of plants)” value [2] was 0, the “Non-resistant (number of plants)” value [2] was 1 and the “Poorly resistant (number of plants)” value [2] was 1. For the same compound, the “Highly resistant (number of plants)” value [3] was 28, the “Moderately resistant (number of plants)” value [3] was 0 and the “Non-resistant (number of plants)” value [3] was 2. For the same compound, the “Poorly resistant (number of plants)” value [3] was 0, the “Highly resistant (number of plants)” value [4] was 24 and the “Moderately resistant (number of plants)” value [4] was 2. The “Non-resistant (number of plants)” value [4] was 1, the “Poorly resistant (number of plants)” value [4] was 1 and the “Highly resistant (number of plants)” value [5] was 27. The “Moderately resistant (number of plants)” value [5] was 0, the “Non-resistant (number of plants)” value [5] was 2 and the “Poorly resistant (number of plants)” value [5] was 0. For the same compound, the “Highly resistant (number of plants)” value [6] was 22, the “Moderately resistant (number of plants)” value [6] was 1 and the “Non-resistant (number of plants)” value [6] was 3. The “Poorly resistant (number of plants)” value [6] was 1, the “Highly resistant (number of plants)” value [7] was 25 and the “Moderately resistant (number of plants)” value [7] was 1. The “Non-resistant (number of plants)” value [7] was 3 and the “Poorly resistant (number of plants)” value [7] was 1.
